From patent publication US20140005164A1, “WNT PATHWAY ANTAGONISTS” (Siena Biotech S.p.A., priority 2011, published 2014)
Read-outs that look alike come from different tables or passages of the source.

Test system: Wnt/β-catenin pathway
Test: Wnt reporter assay (TCF-Luciferase, Firefly) in DBTRG-05MG cells
Assay type: cell-based
Settings: Homo sapiens, read-out: IC50 value in the reporter assay
Experimental: Three copies of a 4×TCF responsive elements were cloned into the pcDNA3.1/Zeo(+) vector (Invitrogen) after deletion of the constitutive CMV promoter and the insertion of the Firefly Luciferase from Promega (phFL-TK) to measure the activity of the Wnt/β-catenin pathway. The resulting plasmid was sequenced for quality control.
Cells were grown in 20 μg/ml Zeocin and 20 μg/ml Zeocin plus 30 μg/ml Hygromicin respectively. The cells were plated at a density of 6500 cells/well in poly-D-lysine pre-treated 96 well-plates.
36 hours after plating cells were incubated with 8-points dilutions compound (0.6% DMSO (v/v)). Each compound was tested in triplicate in single plate. Luciferase detection was done with Dual-Luciferase Reporter Assay System (Promega). 24 hours after compound addition, media was removed and 30 μl of 1× lysis buffer was added to each well for 30 minutes. To each well 45 μl of Dual-Glo Luciferase reagent (Promega) were added and after 1 second delay Luciferase was detected for 1 second using Mithras LB940 instrument. After Firefly luciferase quantification 45 μl of Dual Stop & Glo reagent (Promega) were added to each well and […] Renilla was detected using the same parameters described before.
Data were expressed as % of control for Firefly and Renilla luciferase independently; values were calculated using XLFit version 4.2, with a four parameters sigmoid function (XLFit model 205).

[1] = TCF-Luciferase (Firefly) read out, 24 hours after compound addition, range given with mixed units nM and μM

Row | SMILES | IC50 [1] | IC50 (24 h)
1 | COc1ccc2c(c1)n(C[C@H]1CC[C@H](C(=O)Nc3ccnc(C)c3)CC1)c(=O)n2C [Example 33] | 35 to 23000 nM | 
2 | COc1ccc2c(c1)n(C[C@H]1CC[C@H](C(=O)N3CCN(c4nccs4)CC3)CC1)c(=O)n2C [Example 27] | 35 to 23000 nM | 
3 | CCC(=O)CN1CCN(C(=O)[C@H]2CC[C@H](Cn3c(=O)n(C)c4ccc(OC)cc43)CC2)CC1=O [Example 7, 5-Methoxy-1-methyl-3-{trans-4-[3-oxo-4-(2-oxo-butyl)-piperazine-1-carbonyl]-cyclohexylmethyl}-1,3-dihydro-benzoimidazol-2-one] | 35 to 23000 nM | 
4 | COCCOc1ccc2c(c1)n(C[C@H]1CC[C@H](C(=O)N3CC=C(c4cnn(C)c4)CC3)CC1)c(=O)n2C [Example 130] | 35 to 23000 nM | 
5 | Cn1c(=O)n(C[C@H]2CC[C@H](C(=O)N3CCN(c4nccs4)CC3)CC2)c2cccc(Cl)c21 [Example 56] | 35 to 23000 nM | 
6 | Cc1cnccc1NC(=O)[C@H]1CC[C@H](Cn2c(=O)n(C)c3ccc(C4CC4)cc32)CC1 [Example 70] | 35 to 23000 nM | 
7 | COc1cc(NC(=O)[C@H]2CC[C@H](Cn3c(=O)n(C)c4ccc(Cl)cc43)CC2)ccn1 [Example 52] | 35 to 23000 nM | 
8 | COCCOc1cc(NC(=O)[C@H]2CC[C@H](Cn3c(=O)n(C)c4ccc(OC)cc43)CC2)ccn1 [Example 36] | 35 to 23000 nM | 
9 | COCCN(C)c1ccc2c(n1)n(C[C@H]1CC[C@H](C(=O)Nc3ccncc3)CC1)c(=O)n2C [Example 108] | 35 to 23000 nM | 
10 | COCCN(C)c1ncc2c(n1)n(C[C@H]1CC[C@H](C(=O)Nc3ccncc3)CC1)c(=O)n2C [Example 8, Trans-4-{2-[(2-Methoxy-ethyl)-methyl-amino]-7-methyl-8-oxo-7,8-dihydro-purin-9-ylmethyl}-cyclohexanecarboxylic acid pyridine-4-ylamide] |  | 35 to 23000 nM
11 | COc1ccc2c(c1)n(C[C@H]1CC[C@H](C(=O)Nc3ccc(OC)nc3)CC1)c(=O)n2C [Example 31] | 35 to 23000 nM | 
12 | COc1cc2c(cc1F)n(C)c(=O)n2C[C@H]1CC[C@H](C(=O)Nc2ccncn2)CC1 [Example 159] | 35 to 23000 nM | 
13 | COc1ccc2c(c1)n(C[C@H]1CC[C@H](C(=O)Nc3ccncn3)CC1)c(=O)n2C [Example 104] | 35 to 23000 nM | 
14 | COc1ccc2c(c1)n(C[C@H]1CC[C@H](C(=O)N3CCN(C(=O)[C@@H]4CCC(=O)O4)CC3)CC1)c(=O)n2C [Example 74] | 35 to 23000 nM | 
15 | Cn1c(=O)n(C[C@H]2CC[C@H](C(=O)Nc3ccncc3)CC2)c2nc(OCC#N)ccc21 [Example 167] | 35 to 23000 nM | 
16 | COc1ccc2c(c1)n(C[C@H]1CC[C@H](C(=O)Nc3nc4ccccc4s3)CC1)c(=O)n2C [Example 187] | 35 to 23000 nM | 
17 | COc1ccc2c(c1)n(C[C@H]1CC[C@H](C(=O)N3CCC(F)(F)C3)CC1)c(=O)n2C [Example 44] | 35 to 23000 nM | 
18 | COc1ccc2c(c1)n(C[C@H]1CC[C@H](C(=O)Nc3ccc(-c4nnco4)cc3)CC1)c(=O)n2C [Example 66] | 35 to 23000 nM | 
19 | COc1ccc2c(c1)n(C[C@H]1CC[C@H](C(=O)N3CC4(COC4)C3)CC1)c(=O)n2C [Example 95] | 35 to 23000 nM | 
20 | COc1ccc2c(c1)n(C[C@H]1CC[C@H](c3nnc(-c4cccc(OC(F)F)c4)o3)CC1)c(=O)n2C [Example 118] | 35 to 23000 nM | 
21 | COc1ccc2c(c1)n(C[C@H]1CC[C@H](c3noc(-c4cccnc4)n3)CC1)c(=O)n2C [Example 172] | 35 to 23000 nM | 
22 | COc1ccc2c(c1)n(C[C@H]1CC[C@H](C(=O)N3CCN(c4ccn(C)n4)CC3)CC1)c(=O)n2C [Example 132] | 35 to 23000 nM | 
23 | COCCN(C)c1ncccc1NC(=O)[C@H]1CC[C@H](Cn2c(=O)n(C)c3ccc(OC)cc32)CC1 [Example 45] | 35 to 23000 nM | 
24 | COc1ccc2c(n1)n(C[C@H]1CC[C@H](C(=O)N3CCN(c4ncccn4)CC3)CC1)c(=O)n2C [Example 26] | 35 to 23000 nM | 
25 | Cn1c(=O)n(C[C@H]2CC[C@H](C(=O)Nc3ccncc3)CC2)c2cc(C3CC3)ccc21 [Example 69] | 35 to 23000 nM | 
26 | COc1ccc2c(c1)n(C[C@H]1CC[C@H](C(=O)N3CCN(c4ccnc(F)c4)CC3)CC1)c(=O)n2C [Example 79] | 35 to 23000 nM | 
27 | COc1ccc2c(c1)n(C[C@H]1CC[C@H](c3nnc(-c4cc(C)on4)o3)CC1)c(=O)n2C [Example 131] | 35 to 23000 nM | 
28 | Cn1cc(C2=CCN(C(=O)[C@H]3CC[C@H](Cn4c(=O)n(C)c5ccc(C#N)cc54)CC3)CC2)cn1 [Example 154] | 35 to 23000 nM | 

Row | SMILES | IC50 [1] | IC50 (24 h)
29 | COCCOc1ccc2c(n1)n(C[C@H]1CC[C@H](C(=O)Nc3ccncc3)CC1)c(=O)n2C [Example 150] | 35 to 23000 nM | 
30 | Cn1c(=O)n(C[C@H]2CC[C@H](C(=O)N3CCN(c4ncccn4)CC3)CC2)c2ccc(Cl)cc21 [Example 55] | 35 to 23000 nM | 
31 | CONC(=O)C1CCN(C(=O)[C@H]2CC[C@H](Cn3c(=O)n(C)c4ccc(OC)cc43)CC2)CC1 [Example 85] | 35 to 23000 nM | 
32 | COc1ccc2c(c1)n(C[C@H]1CC[C@H](c3nnc(-c4cc(C)nn4C)o3)CC1)c(=O)n2C [Example 149] | 35 to 23000 nM | 
33 | Cn1c(=O)n(C[C@H]2CC[C@H](C(=O)N3CCN(c4ccncc4)CC3)CC2)c2cc(C(F)(F)F)ccc21 [Example 73] | 35 to 23000 nM | 
34 | COc1ccc2c(c1)n(C[C@H]1CC[C@H](C(=O)N3CCN(c4cccc(OC)n4)CC3)CC1)c(=O)n2C [Example 65] | 35 to 23000 nM | 
35 | COc1ccc2c(c1)n(C[C@H]1CC[C@H](C(=O)N3CCNC(=O)C3)CC1)c(=O)n2C [Example 105] | 35 to 23000 nM | 
36 | Cn1c(=O)n(C[C@H]2CC[C@H](C(=O)Nc3ccncc3)CC2)c2cc(OCCCC#N)ccc21 [Example 136] | 35 to 23000 nM | 
37 | COCCOc1cc2c(cc1F)n(C)c(=O)n2C[C@H]1CC[C@H](C(=O)N2CCOCC2)CC1 [Example 177] | 35 to 23000 nM | 
38 | COc1ccc2c(c1)n(C[C@H]1CC[C@H](c3nnc(-c4csc(C)n4)o3)CC1)c(=O)n2C [Example 99] | 35 to 23000 nM | 
39 | COc1ccc2c(c1)n(C[C@H]1CC[C@H](C(=O)Nc3cccc(C)n3)CC1)c(=O)n2C [Example 34] | 35 to 23000 nM | 
40 | COc1ccc2c(c1)n(C[C@H]1CC[C@H](C(=O)Nc3ccnc(Cl)c3)CC1)c(=O)n2C [Example 32] | 35 to 23000 nM | 
41 | COc1ccc2c(c1)n(C[C@H]1CC[C@H](c3nnc(-c4ccncn4)o3)CC1)c(=O)n2C [Example 117] | 35 to 23000 nM | 
42 | COc1ccc2c(c1)n(C[C@H]1CC[C@H](C(=O)N3CCN(c4ccc(C)nc4)CC3)CC1)c(=O)n2C [Example 93] | 35 to 23000 nM | 
43 | COc1ccc2c(c1)n(C[C@H]1CC[C@H](c3nnc(-c4cn(C)nc4C(F)(F)F)o3)CC1)c(=O)n2C [Example 11, 5-Methoxy-1-methyl-3-{trans 4-[5-(1-methyl-3-trifluoromethyl-1H-pyrazol-4-yl)-[1,3,4]oxadiazol-2-yl]-cyclohexylmethyl}-1,3-dihydro-benzoimidazol-2-one] | 35 to 23000 nM | 
44 | Cn1ccc(N2CCN(C(=O)[C@H]3CC[C@H](Cn4c(=O)n(C)c5ccc(=O)[nH]c54)CC3)CC2)n1 [Example 134] | 35 to 23000 nM | 
45 | COc1ccc(COc2ccc3c(c2)n(C[C@H]2CC[C@H](C(=O)Nc4ccncc4)CC2)c(=O)n3C)cc1 [Example 6, Trans-4-[6-(4-Methoxy-benzyloxy)-3-methyl-2-oxo-2,3-dihydro-benzoimidazol-1-ylmethyl]-cyclohexanecarboxylic acid pyridin-4-ylamide] | 35 to 23000 nM | 
46 | Cn1cc(C2=CCN(C(=O)[C@H]3CC[C@H](Cn4c(=O)n(C)c5ccc(OC(F)F)cc54)CC3)CC2)cn1 [Example 166] | 35 to 23000 nM | 
47 | COc1ccc2c(c1)n(C[C@H]1CC[C@H](c3nnc(-c4ccc(OC)c(F)c4)o3)CC1)c(=O)n2C [Example 112] | 35 to 23000 nM | 
48 | Cn1c(=O)n(C[C@H]2CC[C@H](C(=O)Nc3ccnnc3)CC2)c2[nH]c(=O)ccc21 [Example 9, Trans-4-(1-Methyl-2,5-dioxo-1,2,4,5-tetrahydro-imidazo[4,5-b]pyridin-3-ylmethyl)-cyclohexanecarboxylic acid pyridazin-4-ylamide] | 35 to 23000 nM | 
49 | COc1ccc2c(c1)n(C[C@H]1CC[C@H](C(=O)N3CCN(c4cccc(C(F)(F)F)n4)CC3)CC1)c(=O)n2C [Example 87] | 35 to 23000 nM | 
50 | Cn1c(=O)n(C[C@H]2CC[C@H](C(=O)Nc3ccncc3)CC2)c2cc(OCCF)ccc21 [Example 137] | 35 to 23000 nM | 
51 | COc1ccc2c(c1)n(C[C@H]1CC[C@H](c3nnc(-c4cccnc4)o3)CC1)c(=O)n2C [Example 96] | 35 to 23000 nM | 
52 | COc1ccc2c(c1)n(C[C@H]1CC[C@H](C(=O)N3CCN(c4ncccn4)CC3)CC1)c(=O)n2C [Example 2, 5-Methoxy-1-methyl-3-[trans-4-(4-pyrimidin-2-yl-piperazine-1-carbonyl)-cyclohexylmethyl]-1,3-dihydro-benzoimidazol-2-one] | 35 to 23000 nM | 
53 | COc1ccc2c(c1)n(C[C@H]1CC[C@H](C(=O)N3CCC(F)(F)CC3)CC1)c(=O)n2C [Example 35] | 35 to 23000 nM | 
54 | COc1ccc2c(c1)n(C[C@H]1CC[C@H](C(=O)N3CCN(c4ccnc(OC)c4)CC3)CC1)c(=O)n2C [Example 91] | 35 to 23000 nM | 
55 | COc1ccc2c(c1)n(C[C@H]1CC[C@H](C(=O)Nc3ccncc3C)CC1)c(=O)n2C [Example 30] | 35 to 23000 nM | 
